For assay [1], the system named is Escherichia coli. Kind of assay: Antibacterial activity against Escherichia coli ATCC 25922 assessed as inhibition of bacterial growth by broth microdilution method. Type of assay: functional. (In general: In broth dilution the organism is exposed to a series of concentrations in liquid medium.)
A further assay has as its system Pseudomonas aeruginosa. The assay can be described thus: Antibacterial activity against Pseudomonas aeruginosa ATCC 27853 assessed as inhibition of bacterial growth by broth microdilution method. Type of assay: functional.
The next assay relates to Salmonella typhimurium. Kind of assay: Antibacterial activity against Salmonella enterica serovar typhimurium SL1344 (SE03) assessed as inhibition of bacterial growth by broth microdilution method. Format: functional, Salmonella enterica subsp. enterica serovar Typhimurium.
The subject of assay [2] is Staphylococcus aureus. The assay can be described thus: Antibacterial activity against Staphylococcus aureus ATCC 25923 assessed as inhibition of bacterial growth by broth microdilution method. Type of assay: functional.
The test system of assay [3] is Enterococcus faecalis. Kind of assay: Antibacterial activity against Enterococcus faecalis ATCC 29212 assessed as inhibition of bacterial growth by broth microdilution method. Format: functional.
The test system of assay [4] is Staphylococcus aureus. The assay can be described thus: Antibacterial activity against methicillin and ofloxacin-resistant Staphylococcus aureus 272123 assessed as inhibition of bacterial growth by broth microdilution method. Type of assay: functional.
The next assay deals with Candida albicans. The assay can be described thus: Antifungal activity against Candidia albicans ATCC 10231 assessed as inhibition of fungal growth by broth microdilution method. Format: functional.
A further assay has as its system Aspergillus fumigatus. The assay can be described thus: Antifungal activity against Aspergillus fumigatus ATCC 204305 assessed as inhibition of fungal growth by broth microdilution method. Type of assay: functional.
A further assay concerns Trichophyton rubrum. Kind of assay: Antifungal activity against Trichophyton rubrum FF5 assessed as inhibition of fungal growth by broth microdilution method. Type of assay: functional.
Assay [5] concerns Enterococcus faecalis. The assay can be described thus: Antimicrobial adjuvant activity against Enterococcus faecalis B3/101 assessed as potentiation of vancomycin-induced antibacterial activity by measuring fold reduction in vancomycin MIC at 64 ug/ml by broth microdilution method. Type of assay: functional. As to conditions: dose 64 µg/ml.
For assay [6], the system named is Salmonella enterica subsp. enterica serovar Typhimurium. The assay can be described thus: Inhibition of Multidrug resistance efflux pump in Salmonella enterica serovar typhimurium SL1344 (SE03) assessed as relative fluorescence index using ethidium bromide as substrate at 50 uM by fluorescence based analysis.
The nature of assay [7]: Inhibition of Multidrug resistance efflux pump in Staphylococcus aureus 272123 assessed as relative fluorescence index using ethidium bromide as substrate at 50 uM by fluorescence based analysis.
Assay [8] deals with Escherichia coli. Kind of assay: Antimicrobial adjuvant activity against ESBL-producing Escherichia coli SA/2 assessed as potentiation of cefotaxime-induced antibacterial activity by measuring fold reduction in cefotaxime MIC at 64 ug/ml by broth microdilution method. The settings on record: dose 64 µg/ml. Type of assay: functional.
Assay [9] is described as follows: Inhibition of quorum sensing system in Chromobacterium violaceum wild type 85 assessed as reduction in pigment production incubated for 24 to 48 hrs. The settings on record: time 24-48 hrs.
Another assay relates to Serratia marcescens. Kind of assay: Inhibition of quorum sensing system in Serratia marcescens AS-1 assessed as reduction in pigment production incubated for 24 to 48 hrs. The settings on record: time 24-48 hrs.
The nature of assay [10]: Inhibition of quorum sensing system in Chromobacterium violaceum CV026 assessed as reduction in pigment production co-cultured with Sphingomonas paucimobilis Ezf 10-17 for 24 to 48 hrs. As to conditions: time 24-48 hrs.

A value given as a limit tells only on which side of the number the result lay.

Broadly, the MIC is the lowest concentration that inhibits growth of the organism. Take `O=C1/C(=C/c2cccc(F)c2)COC/C1=C\c1cccc(F)c1`: the MIC in the assay on Escherichia coli [1], in the assay on Pseudomonas aeruginosa, in the assay with Salmonella typhimurium, in the assay on Staphylococcus aureus [2], with Enterococcus faecalis [3] and in the assay with Staphylococcus aureus [4] was over 64 mg/L throughout. Also, the MIC in the assay on Candida albicans, in the assay on Aspergillus fumigatus and with Trichophyton rubrum was over 128 mg/L each time. The “fold change (FC)” value in the assay with Enterococcus faecalis [5] came out at 2. Moreover, the RFU is 0.04 in assay [6] and -0.16 in assay [7].
With `Cc1ccccc1/C=C1\COC/C(=C\c2ccccc2C)C1=O`, the minimal inhibitory concentration (MIC) in the assay on Escherichia coli [1], in the assay on Pseudomonas aeruginosa, with Salmonella typhimurium, with Staphylococcus aureus [2], in the assay with Enterococcus faecalis [3] and in the assay with Staphylococcus aureus [4] was over 64 mg/L each time. Moreover, the MIC with Candida albicans, in the assay on Aspergillus fumigatus and in the assay with Trichophyton rubrum was over 128 mg/L in each case. For the same compound, in the assay with Enterococcus faecalis [5], the “fold change (FC)” value is 2. For the same compound, the figures for the RFU in assay [6] and in [7] were -0.08 and -0.23, respectively.
Consider `COc1cccc(/C=C2\COC/C(=C\c3cccc(OC)c3)C2=O)c1`, for which the minimum inhibitory concentration (MIC) with Escherichia coli [1], with Pseudomonas aeruginosa, with Salmonella typhimurium, with Staphylococcus aureus [2], with Enterococcus faecalis [3] and in the assay on Staphylococcus aureus [4] was over 64 mg/L throughout. Besides, the minimal inhibitory concentration (MIC) in the assay on Candida albicans, with Aspergillus fumigatus and in the assay with Trichophyton rubrum was over 128 mg/L each time. For the same compound, in the assay on Enterococcus faecalis [5], the “fold change (FC)” value stood at 4. The RFU in assay [6] came out at 0.05; in assay [7] it was 0.17.
Take `Cc1ccc(/C=C2\COC/C(=C\c3ccc(C)cc3)C2=O)cc1`: the minimal inhibitory concentration (MIC) in the assay on Escherichia coli [1], with Pseudomonas aeruginosa, in the assay on Salmonella typhimurium, with Staphylococcus aureus [2], with Enterococcus faecalis [3] and with Staphylococcus aureus [4] was over 64 mg/L in each case. In addition, the minimum inhibitory concentration (MIC) in the assay with Candida albicans, with Aspergillus fumigatus and in the assay with Trichophyton rubrum was over 128 mg/L each time. Further, the “fold change (FC)” value in the assay with Escherichia coli [8] and with Enterococcus faecalis [5] was 2 in each case. Moreover, the RFU was -0.21 in assay [6] and -0.24 in [7].
Regarding `O=C1/C(=C/c2ccccc2Br)COC/C1=C\c1ccccc1Br`, the minimum inhibitory concentration (MIC) in the assay with Escherichia coli [1], with Pseudomonas aeruginosa, with Salmonella typhimurium, with Staphylococcus aureus [2], with Enterococcus faecalis [3] and with Staphylococcus aureus [4] was over 64 mg/L throughout. Further, the MIC in the assay with Candida albicans, in the assay with Aspergillus fumigatus and in the assay on Trichophyton rubrum was over 128 mg/L in each case. In addition, the “fold change (FC)” value with Enterococcus faecalis [5] is 2. The values for the RFU in assay [6] and in [7] were -0.02 and -0.05, respectively.
On to `CC(CN1c2ccccc2Sc2ccccc21)N(C)C` (stereo not given), for which the Activity is 40 mm in assay [9], 18 mm in the assay on Serratia marcescens and 41 mm in [10].
For the compound `COc1cc(OC)c(OC)cc1/C=C1\Cc2ccccc2C1=O`, the minimum inhibitory concentration (MIC) in the assay with Escherichia coli [1], with Pseudomonas aeruginosa, in the assay on Salmonella typhimurium, with Staphylococcus aureus [2], in the assay with Enterococcus faecalis [3] and in the assay on Staphylococcus aureus [4] was over 64 mg/L each time. For the same compound, the minimum inhibitory concentration (MIC) with Candida albicans, with Aspergillus fumigatus and in the assay on Trichophyton rubrum was over 128 mg/L each time. Moreover, the “fold change (FC)” value in the assay on Escherichia coli [8] and in the assay with Enterococcus faecalis [5] was 2 throughout. Besides, the RFU in assay [6] was 0.11; in assay [7] it was -0.34.
In the case of `COc1cc(/C=C2\COC/C(=C\c3cc(OC)cc(OC)c3)C2=O)cc(OC)c1`, the MIC in the assay on Escherichia coli [1], in the assay on Pseudomonas aeruginosa, with Salmonella typhimurium, with Staphylococcus aureus [2], in the assay with Enterococcus faecalis [3] and in the assay on Staphylococcus aureus [4] was over 64 mg/L throughout. The MIC in the assay with Candida albicans, with Aspergillus fumigatus and in the assay on Trichophyton rubrum was over 128 mg/L throughout. Also, the “fold change (FC)” value in the assay with Enterococcus faecalis [5] was determined as 4. For the same compound, the figures for the RFU in [6] and in [7] were 0.09 and 0.25, respectively.
For `COc1ccccc1/C=C1\CC/C(=C\c2ccccc2OC)C1=O`, the minimum inhibitory concentration (MIC) with Escherichia coli [1], with Pseudomonas aeruginosa, with Salmonella typhimurium, in the assay on Staphylococcus aureus [2], with Enterococcus faecalis [3] and in the assay with Staphylococcus aureus [4] was over 64 mg/L each time. Moreover, the MIC in the assay on Candida albicans, in the assay on Aspergillus fumigatus and with Trichophyton rubrum was over 128 mg/L throughout. Moreover, the “fold change (FC)” value with Enterococcus faecalis [5] is 2. The RFU in [6] is 0.15; in [7], -0.39.
Take `COc1ccccc1/C=C1\CSC/C(=C\c2ccccc2OC)C1=O`: the MIC in the assay with Escherichia coli [1], with Pseudomonas aeruginosa, with Salmonella typhimurium, with Staphylococcus aureus [2], in the assay on Enterococcus faecalis [3] and with Staphylococcus aureus [4] was over 64 mg/L each time. Further, the MIC in the assay on Candida albicans, in the assay with Aspergillus fumigatus and in the assay with Trichophyton rubrum was over 128 mg/L in each case. Besides, the “fold change (FC)” value in the assay with Enterococcus faecalis [5] stood at 4. The RFU in [6] and in assay [7] was 0.01 each time.
Regarding `COc1ccccc1/C=C1\Cc2ccccc2C1=O`, the minimum inhibitory concentration (MIC) in the assay with Escherichia coli [1], in the assay on Pseudomonas aeruginosa, in the assay with Salmonella typhimurium, with Staphylococcus aureus [2], in the assay with Enterococcus faecalis [3] and in the assay on Staphylococcus aureus [4] was over 64 mg/L throughout. For the same compound, the MIC in the assay with Candida albicans, with Aspergillus fumigatus and with Trichophyton rubrum was over 128 mg/L in each case. Besides, the “fold change (FC)” value with Enterococcus faecalis [5] came to 2. Also, the RFU in [6] was 0.25; in [7] it was 0.05.
With `Cc1cccc(/C=C2\COC/C(=C\c3cccc(C)c3)C2=O)c1`, the minimal inhibitory concentration (MIC) in the assay on Escherichia coli [1], in the assay with Pseudomonas aeruginosa, with Salmonella typhimurium, in the assay with Staphylococcus aureus [2], in the assay with Enterococcus faecalis [3] and in the assay with Staphylococcus aureus [4] was over 64 mg/L each time. Besides, the minimum inhibitory concentration (MIC) in the assay with Candida albicans, in the assay on Aspergillus fumigatus and in the assay with Trichophyton rubrum was over 128 mg/L throughout. Besides, the “fold change (FC)” value with Escherichia coli [8] and with Enterococcus faecalis [5] was 2 in each case. For the same compound, the RFU in [6] is -0.12; in [7] it was 0.11.
Take `COc1ccc(/C=C2\COC/C(=C\c3ccc(OC)cc3OC)C2=O)c(OC)c1`: the MIC with Escherichia coli [1], in the assay with Pseudomonas aeruginosa, in the assay with Salmonella typhimurium, with Staphylococcus aureus [2], with Enterococcus faecalis [3] and in the assay on Staphylococcus aureus [4] was over 64 mg/L throughout. Further, the MIC in the assay with Candida albicans, in the assay on Aspergillus fumigatus and in the assay with Trichophyton rubrum was over 128 mg/L in each case. Moreover, the “fold change (FC)” value in the assay with Escherichia coli [8] amounted to 8. The RFU is -0.15 in assay [6] and -0.19 in [7].

These data come from ChEMBL document CHEMBL5143672, “New diarylpentanoids and chalcones as potential antimicrobial adjuvants” (2022).
